Assay results: publication PMC6968685 (Journal of Enzyme Inhibition and Medicinal Chemistry, 2020)
Counter-ions that a name gives are not always drawn.

Assays:
[1] = tested on: T. brucei brucei AnTat 1.9; assay: In vitro antitrypanosomal activity, Alamar Blue assay; type: cell-based; conditions: for Selectivity index HepG2/Tryp.: SI = CC50 HepG2 / IC50 Trypanosoma brucei brucei; for IC50: Trypanosoma brucei, slender bloodstream trypomastigotes, AnTat 1.9 strain, read-out: Trypanosoma brucei brucei IC50 values, Trypanos Antat 1.9
Procedure: The effects of the tested compounds on the growth of T. brucei brucei were assessed using an Alamar Blue® assay described by Räz et al.[49] T. brucei brucei AnTat 1.9 (IMTA, Antwerpen, Belgium) was cultured in MEM with Earle’s salts, supplemented according to the protocol of Baltz et al.[50] with the following modifications: 0.5 mM mercaptoethanol (Sigma Aldrich), 1.5 mM L-cysteine (Sigma Aldrich), 0.05 mM bathocuproine sulphate (Sigma Aldrich), and 20% heat-inactivated horse serum (Gibco, France) at 37 °C and 5% CO2. Samples were incubated at an average density of 2000 parasites/well in sterile 96-wells plates (Fisher, France) with various concentrations of compounds dissolved in 0.9% NaCl. All doses were tested in duplicate. Appropriate controls treated with solvents 0.9% NaCl or DMSO or with suramin, pentamidine, eflornithine, and fexinidazole (reference drugs purchased from Sigma Aldrich and Fluorochem, UK) were added to each set of experiments. After 69 h incubation period at 37 °C, 10 µl of the viability marker Alamar Blue (Fisher) was added to each well, and the plates were incubated for 5 h. The plates were read in a PerkinElmer ENSPIRE (Germany) microplate reader using an excitation wavelength of 530 nm and an emission wavelength of 590 nm. […] IC50 values were calculated using a nonlinear regression analysis of dose-response curves performed using GraphPad Prism software (La Jolla, CA). IC50 values were calculated from three independent experiments.

[2] = tested on: L. donovani (MHOM/IN/00/DEVI) promastigotes; assay: In vitro antileishmanial activity, MTT assay on promastigotes; type: cell-based; conditions: Leishmania donovani, 72 h incubation, ≥10 = no activity noted at the highest concentration tested
Procedure: L. donovani (MHOM/IN/00/DEVI) used in this study was provided by the CNR Leishmania (Montpellier, France). The effects of the tested compounds on the growth of L. donovani (MHOM/IN/00/DEVI) promastigotes were assessed by MTT assay. Briefly, promastigotes in log-phase in Schneider’s medium supplemented with 20% foetal calf serum (FCS), 2 mM L-glutamine and antibiotics (100 U/ml penicillin and 100 µg/ml streptomycin), were incubated at an average density of 10^6 parasites/ml in sterile 96-well plates with various concentrations of compounds dissolved in DMSO (final concentration less than 0.5% v/v), in duplicate. Appropriate controls treated with DMSO and amphotericin B (reference drug purchased from Sigma-Aldrich) were added to each set of experiments. After 72 h incubation period at 27 °C, parasite metabolic activity was determined. Each well was microscopically examined for precipitate formation. To each well was added 20 µl of 5 mg/ml MTT [3–(4,5-dimethylthiazol-2-yl)-2,5-diphenyltetrazolium bromide)] solution followed by 4 h incubation time. The enzyme reaction was stopped by addition of 100 µl of 50% isopropanol/10% sodium dodecyl sulfate. Plates were vigorously shaken (300 rpm) for 10 min, and the absorbance was measured at 570 nm in a BIO-TEK ELx808 Absorbance Microplate Reader. […] IC50 of the parasite’s growth (half maximal inhibitory concentration or IC50 values) were then calculated from the obtained experimental results using a previously described regression programme.

[3] = tested on: P. falciparum CQ-sensitive strain 3D7; assay: In vitro antiplasmodial activity, SYBR Green I fluorescence-based method, strain 3D7; type: cell-based; conditions: for IC50: Plasmodium falciparum, chloroquine-sensitive strain 3D7, 48 h incubation, read-out: P. falciparum strains IC50 values, 3D7; for Selectivity index HepG2/3D7: SI = CC50 HepG2 / IC50 P. falciparum 3D7
Procedure: (§1) The in vitro antiplasmodial activities were tested over concentrations ranging from […] against culture-adapted P. falciparum reference strains 3D7 and W2. […] The parasites were cultivated in RPMI medium (Sigma-Aldrich, Lyon, France) supplemented with 0.5% Albumax I (Life Technologies Corporation, Paisley, UK), hypoxanthine (Sigma-Aldrich), and gentamicin (Sigma-Aldrich) with human erythrocytes and were incubated at 37 °C in a candle jar, as described previously[43] .The P. falciparum drug susceptibility test was carried out in 96-well flat-bottom sterile plates in a final volume of 250 µl. After 48 h incubation period with the drugs, quantities of DNA in treated and control cultures of parasites in human erythrocytes were quantified using the SYBR Green I (Sigma-Aldrich) fluorescence-based method[44]^,[45]. Briefly, after incubation, plates were frozen at −20 °C until use. Plates were then thawed for 2 h at room temperature, and 100 µl of each homogenised culture was transferred to a well of a 96-well flat-bottom sterile black plate (Nunc, Inc., Rochester, NY) that contained 100 µl of the SYBR Green I lysis buffer (2xSYBR Green, 20 mM Tris base pH 7.5, 5 mM EDTA, 0.008% w/v saponin, 0.08% w/v Triton X-100). […] Plates were incubated for 1 h at room temperature and then read on a fluorescence plate reader (Tecan, Grödig, Austria) using excitation and emission wavelengths of 485 and 535 nm, respectively. IC50 values were calculated by non-linear regression analysis of data from dose-response curves, using TableCurve 2D version 5.0 software (Systat Software, San Jose, CA). IC50 values are reported as means calculated from three independent experiments.

[4] = tested on: P. falciparum CQ-resistant strain W2; assay: In vitro antiplasmodial activity, SYBR Green I fluorescence-based method, strain W2; type: cell-based; conditions: for IC50: Plasmodium falciparum, chloroquine-resistant strain W2, 48 h incubation, read-out: P. falciparum strains IC50 values, W2; for Selectivity index HepG2/W2: SI = CC50 HepG2 / IC50 P. falciparum W2
Procedure: as §1

[5] = Cytotoxicity evaluation, MTT; type: cell-based, human; conditions: human
Procedure: These cells are a commonly used human hepatocarcinoma-derived cell line that has characteristics similar to those of primary hepatocytes. These cells express many hepatocyte-specific metabolic enzymes, thus enabling the cytotoxicity of tested product metabolites to be evaluated. […] Duplicate assays were performed for each sample. Each well was microscopically examined for precipitate formation before the medium was aspirated from the wells. After aspiration, 100 µl of MTT solution (0.5 mg/ml in medium without FCS) were then added to each well. […] The MTT solution was removed, and DMSO (100 µl) was added to dissolve the resulting blue formazan crystals. Plates were shaken vigorously (300 rpm) for 5 min. The absorbance was measured at 570 nm with 630 nm as reference wavelength in a BIO-TEK ELx808 Absorbance Microplate Reader. DMSO was used as blank and doxorubicin (Sigma Aldrich) as positive control. Cell viability was calculated as percentage of control (cells incubated without compound). The CC50 was determined from the dose-response curve using the TableCurve 2D version 5.0 software (Systat Software, San Jose, CA)

melting point	IC50 [1]	IC50 [2]	IC50 [3]	IC50 [4]	Compound	Selectivity index HepG2/Tryp. [1]	Selectivity index HepG2/3D7 [3]	CC50 at 72 h [5]	Selectivity index HepG2/W2 [4]
223 to 225 °C					COc1ccc2c(-c3ccc(CNCCCN(C)C)cc3)nc(-c3ccc(CNCCCN(C)C)cc3)nc2c1 (as salt: (cooh)2) [Compound 3n, 7-Methoxy-2,4-bis{4-[(3-dimethylaminopropyl)aminomethyl]phenyl}quinazoline]				
	1.08 ± 0.068 µM	≥ 10 µM	8.98 ± 0.36 µM	> 40 µM	COc1ccc2c(-c3ccc(CNCCCCN(C)C)cc3)cc(-c3ccc(CNCCCCN(C)C)cc3)nc2c1 [Compound 1m, 7-Methoxy-2,4-bis{4-[(4-dimethylaminobutyl)aminomethyl]phenyl}quinoline]	5.00	0.60	5.4 ± 0.3 µM	
	0.94 ± 0.089 µM	≥ 10 µM	3.12 ± 0.23 µM	4.84 ± 0.58 µM	COc1ccc2nc(-c3ccc(CNCCCN4CCN(C)CC4)cc3)nc(-c3ccc(CNCCCN4CCN(C)CC4)cc3)c2c1 [Compound 3k, 6-Methoxy-2,4-bis{4-[(3–(4-methylpiperazin-1-yl)propyl)aminomethyl]phenyl}quinazoline]	24.06	7.25	22.6 ± 1.1 µM	4.67
	1.07 ± 0.164 µM	≥ 10 µM	4.34 ± 0.33 µM	4.75 ± 0.31 µM	COc1ccc2c(-c3ccc(CNCCN4CCN(C)CC4)cc3)nc(-c3ccc(CNCCN4CCN(C)CC4)cc3)nc2c1 [Compound 3r, 7-Methoxy-2,4-bis{4-[(2–(4-methylpiperazin-1-yl)ethyl)aminomethyl]phenyl}quinazoline]	3.64	0.90	3.9 ± 0.9 µM	0.82
	1 ± 0.261 µM	≥ 10 µM	3.27 ± 0.31 µM	7.61 ± 0.94 µM	COc1ccc2cc(-c3ccc(CNCCCCN4CCN(C)CC4)cc3)nc(-c3ccc(CNCCCCN4CCN(C)CC4)cc3)c2c1 [Compound 2g, 7-Methoxy-1,3-bis{4-[(4–(4-methylpiperazin-1-yl)butyl)aminomethyl]phenyl}isoquinoline]	10.16	3.11	10.2 ± 0.9 µM	1.33
	1.02 ± 0.194 µM	≥ 10 µM	6.56 ± 1.44 µM	5.08 ± 0.48 µM	COc1ccc2c(-c3ccc(CNCCCCN4CCN(C)CC4)cc3)nc(-c3ccc(CNCCCCN4CCN(C)CC4)cc3)nc2c1 [Compound 3p, 7-Methoxy-2,4-bis{4-[(4–(4-methylpiperazin-1-yl)butyl)aminomethyl]phenyl}quinazoline]	17.01	2.64	17.4 ± 1.2 µM	3.41
	0.67 ± 0.091 µM	≥ 10 µM	3.09 ± 0.38 µM	7.92 ± 0.64 µM	COc1ccc2nc(-c3ccc(CNCCCCN(C)C)cc3)cc(-c3ccc(CNCCCCN(C)C)cc3)c2c1 [Compound 1i, 6-Methoxy-2,4-bis{4-[(4-dimethylaminobutyl)aminomethyl]phenyl}quinoline]	5.34	1.16	3.58 ± 0.3 µM	0.45
	0.75 ± 0.121 µM	≥ 10 µM	0.61 ± 0.03 µM	0.99 ± 0.09 µM	COc1ccc2c(-c3ccc(CNCCN(C)C)cc3)nc(-c3ccc(CNCCN(C)C)cc3)nc2c1 [Compound 3o, 7-Methoxy-2,4-bis{4-[(2-dimethylaminoethyl)aminomethyl]phenyl}quinazoline]	1.52	1.87	1.14 ± 0.4 µM	1.15
	1.1 ± 0.318 µM	≥ 10 µM	1.96 ± 0.58 µM	4.42 ± 0.56 µM	CN1CCN(CCCCNCc2ccc(-c3cc4ccccc4c(-c4ccc(CNCCCCN5CCN(C)CC5)cc4)n3)cc2)CC1 [Compound 2c, 1,3-Bis{4-[(4–(4-methylpiperazin-1-yl)butyl)aminomethyl]phenyl}isoquinoline]	4.53	2.54	4.98 ± 0.5 µM	1.13
	1.34 ± 0.088 µM	≥ 10 µM	9.66 ± 1.2 µM	9.6 ± 0.99 µM	COc1ccc2c(-c3ccc(CNCCCN4CCN(C)CC4)cc3)nc(-c3ccc(CNCCCN4CCN(C)CC4)cc3)cc2c1 [Compound 2l]	1.50	0.21	2.01 ± 0.2 µM	0.21
	1.12 ± 0.118 µM	≥ 10 µM	2.41 ± 0.08 µM	2.26 ± 0.48 µM	COc1ccc2c(-c3ccc(CNCCCCN4CCN(C)CC4)cc3)cc(-c3ccc(CNCCCCN4CCN(C)CC4)cc3)nc2c1 [Compound 1o, 7-Methoxy-2,4-bis{4-[(4–(4-methylpiperazin-1-yl)butyl)aminomethyl]phenyl}quinoline]	2.96	1.38	3.32 ± 0.5 µM	1.47
	1.71 ± 0.145 µM	≥ 10 µM	10.4 ± 0.58 µM	11.5 ± 1.05 µM	COc1ccc2c(-c3ccc(CNCCCN4CCN(C)CC4)cc3)nc(-c3ccc(CNCCCN4CCN(C)CC4)cc3)nc2c1 [Compound 3q, 7-Methoxy-2,4-bis{4-[(3–(4-methylpiperazin-1-yl)propyl)aminomethyl]phenyl}quinazoline]	0.74	0.12	1.27 ± 0.5 µM	0.11
